Measured values published in ChEMBL document CHEMBL5543082, “In vitro and in vivo anti-pigmentation effects of 2-mercaptobenzimidazoles as nanomolar tyrosinase inhibitors on mammalian cells and zebrafish embryos: Preparation of pigment-free zebrafish embryos” (Eur J Med Chem, 2024).
Activity calls are given as the source filed them. The rule behind the calls is not given here.

Experiments:
[1] = Antioxidant activity assessed as peroxynitrite scavenging activity by measuring rhodamine 123 fluorescence intensity at 50 uM in presence of SIN-1; type: functional
Mushroom tyrosinase [2] = molecular target: T1, Mushroom tyrosinase (Agaricus bisporus, UniProt O42713+Q00024+C7FF04+C7FF05); assay: Inhibition of mushroom tyrosinase diphenolase activity using L-dopa as substrate incubated for 0.5 hrs; type: protein assay
[3] = Antioxidant activity assessed as reduction in FeSO4 induced hydroxyl radical production at 40 uM; type: functional
[4] = Antioxidant activity assessed as reduction in H2O2 induced hydroxyl radical production at 40 uM; type: functional
Danio rerio = assay: Depigmentation activity in zebrafish embryos administered at 21 hpf and measured after 69 hpf; type: functional, organism-based; conditions: dose 0.01-0.4 mM, time […]
Mushroom tyrosinase [5] = molecular target: T1, Mushroom tyrosinase; assay: Inhibition of mushroom tyrosinase monophenolase activity using L-tyrosine as substrate incubated for 0.5 hrs; type: protein assay
[6] = molecular target: T2, Tyrosinase (Mus musculus) (UniProt P11344); assay: Inhibition of tyrosinase activity in mouse B16-F10 cells preincubated for 1 hr followed by alpha-MSH and IBMX addition and measured after 72 hrs; type: cell-based; conditions: time 73.0 hrs
T2 sequence (whole entry): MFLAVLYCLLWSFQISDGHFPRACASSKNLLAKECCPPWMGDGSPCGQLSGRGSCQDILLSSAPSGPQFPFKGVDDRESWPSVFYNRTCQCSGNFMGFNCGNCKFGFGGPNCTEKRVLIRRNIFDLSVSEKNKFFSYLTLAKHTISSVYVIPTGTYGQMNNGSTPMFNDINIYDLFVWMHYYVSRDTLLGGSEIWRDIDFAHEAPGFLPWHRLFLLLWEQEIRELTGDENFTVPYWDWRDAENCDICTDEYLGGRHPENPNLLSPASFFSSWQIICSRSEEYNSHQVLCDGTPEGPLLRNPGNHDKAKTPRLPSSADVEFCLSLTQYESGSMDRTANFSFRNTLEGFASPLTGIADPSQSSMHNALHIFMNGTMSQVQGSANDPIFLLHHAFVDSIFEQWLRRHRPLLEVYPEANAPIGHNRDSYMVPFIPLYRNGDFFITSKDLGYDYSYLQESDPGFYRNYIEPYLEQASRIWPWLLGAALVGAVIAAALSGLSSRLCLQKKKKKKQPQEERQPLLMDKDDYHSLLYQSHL

B16-F10 [7] = assay: Inhibition of melanin production in mouse B16-F10 cells preincubated for 1 hr followed by alpha-MSH and IBMX addition and measured after 72 hrs; type: functional, cell-based; conditions: dose 5-20 µM, time 73.0 hrs
B16-F10 [8] = assay: Cytotoxicity against mouse B16-F10 cells at <= 20 uM after 72 hrs by EZ-Cytox solution based microplate reader assay; type: toxicity, cell-based; conditions: b16-f10, 72 h
HaCaT = assay: Cytotoxicity against human HaCaT cells at <= 20 uM after 24 hrs by EZ-Cytox solution based microplate reader assay; type: toxicity, cell-based

SMILES | Activity [1] | IC50 (Mushroom tyrosinase [2]) [nM] | Activity [3] | Activity [4] | Activity (Danio rerio) | IC50 (Mushroom tyrosinase [5]) [nM] | inhibition [6] | inhibition (B16-F10 [7]) | Activity (B16-F10 [8]) | Activity (HaCaT)
CC(C)(S)[C@@H](N)C(=O)O | Active |  |  |  |  |  |  |  |  | 
Cc1cccc2[nH]c(=S)[nH]c12 |  | 740 | inactive | inactive | Dose-Dependent Effect | 5780 |  |  |  | 
Sc1nc2cc(Cl)ccc2[nH]1 | Active |  | inactive | inactive | Dose-Dependent Effect |  | Dose-Dependent Effect | Dose-Dependent Effect | Non-Toxic | Non-Toxic
Cc1ccc2[nH]c(=S)[nH]c2c1 |  |  | inactive | inactive | Dose-Dependent Effect |  | Dose-Dependent Effect | Dose-Dependent Effect |  | 
Cc1cc2nc(S)[nH]c2cc1C |  |  | inactive | inactive | Dose-Dependent Effect |  | Dose-Dependent Effect | Dose-Dependent Effect | Non-Toxic | Non-Toxic
O=C(c1ccccc1)c1ccc2[nH]c(=S)[nH]c2c1 |  |  |  |  |  |  |  |  | Non-Toxic | Non-Toxic
O=[N+]([O-])c1ccc2[nH]c(S)nc2c1 |  |  | inactive | inactive | Dose-Dependent Effect |  |  |  |  | 
N#Cc1ccc2[nH]c(S)nc2c1 | Active | 40 | inactive | inactive | Dose-Dependent Effect | 110 |  |  |  | 
O=C(c1ccccc1)c1ccc2[nH]c(S)nc2c1 | Active | 20 | inactive | inactive | Dose-Dependent Effect | 100 | Dose-Dependent Effect | Dose-Dependent Effect |  | 
COc1ccc2[nH]c(S)nc2c1 |  |  | inactive | inactive | Dose-Dependent Effect |  |  |  |  | 
Cc1c(C)c2c(c(C)c1O)CCC(C)(C(=O)O)O2 (centres undefined) | Active |  | Active | Active |  |  |  |  |  | 
Cc1ccc2[nH]c(S)nc2c1 |  |  |  |  |  |  |  |  | Non-Toxic | Non-Toxic
Sc1nc2ccccc2[nH]1 |  |  | inactive | inactive | Dose-Dependent Effect |  |  |  |  | 
Fc1ccc2[nH]c(S)nc2c1 |  |  | inactive | inactive | Dose-Dependent Effect |  |  |  |  | 
